Converted amounts (≈) assume the structure as drawn. “And” between values parts separate entries of the source, which are not always exact repeats. Equal entries are not always repeated. Bridge positions count the residues as written; N and C are the ends. Square brackets hold non-standard residues; d marks the D form. Peptide text beside a SMILES is read from it. I, II: the chains in the order shown.
Assays:
E. faecalis ATCC 29212 = test: MIC/MBC, broth microdilution and subculture on CA-MH agar; format: cell-based; design: key to Act (antibacterial activity): Bc, bactericidal; Bs, bacteriostatic; conditions: for MIC: broth microdilution; for MIC / MBC: triplicate, mode; for MBC: subculture on CA-MH agar, 37 °C, 24 h
Description: (§1) Bacterial isolates from the American Type Culture Collection (ATCC) were obtained from the Collection of Reference Bacteria on Health Surveillance, Oswaldo Cruz Foundation (FIOCRUZ) after phenotypic and molecular quality control and were registered at SISGEN under the number ADB556B. The minimum inhibitory concentration (MIC) was determined as previously described by Santos-Filho et al., 2021 [17], using the broth microdilution method. The MIC was the lowest concentration that inhibited microbial growth. […] MBC was defined as the lowest peptide concentration with no visible growth on the plate. […] The assay was performed in triplicate, and the values represent the mode of the obtained results.
(§2) Thus, to assess the relevance of the antimicrobial effect of p-Bth analogs, their Minimum Inhibitory Concentration (MIC) and Minimum Bactericidal Concentration (MBC) were analyzed against relevant bacteria. The evaluated strains were the Gram-positives: S. aureus ATCC 25923, S. epidermidis ATCC 35984, E. faecalis ATCC 29212, and E. faecium ATCC […] (Table 1); and the Gram-negatives: K. pneumoniae ATCC 700603, E. coli ATCC 25922, A. baumannii ATCC 19606, and P. aeruginosa ATCC 27853 (Table 2).

[1] = test system: S. epidermidis ATCC 35984; test: as above; format: cell-based; design: key to Act (antibacterial activity): Bc, bactericidal; Bs, bacteriostatic; conditions: for MIC: broth microdilution; for MIC / MBC: triplicate, mode; for MBC: subculture on CA-MH agar, 37 °C, 24 h
Description: as §1, §2

E. coli ATCC 25922 = test: as above; format: cell-based; design: key to Act (antibacterial activity): Bc, bactericidal; Bs, bacteriostatic; conditions: for MIC: broth microdilution; for MIC / MBC: triplicate, mode; for MBC: subculture on CA-MH agar, 37 °C, 24 h
Description: as §1, §2

[2] = Carboxyfluorescein leakage, vesicle permeabilization; conditions: 95% POPC / 5% POPG vesicles
Description: The permeabilization of lipid vesicles containing carboxyfluorescein was carried out using a spectrofluorometer model Fluorolog-3 FL3-122 from Horiba Jobin Yvon (Newark, NJ, USA) (dimers and tetramers) or in a spectrofluorometer model RF-1501 Shimadzu (Kyoto, Japan) (monomer). For RF-1501, the quantification of the fluorescence intensity was performed every 20 s. Two vesicle compositions were used: (1) 80% 1-palmitoyl-2-oleoyl-sn-glycero-3-phosphoethanolamine (POPE) and 20% 1-palmitoyl-2-oleoyl-sn-glycero- 3-phospho-(10-rac-glycerol) (POPG); and (2) 95% 1-palmitoyl-2-oleoyl-sn-glycero-3-phosphocholine (POPC) and 5% POPG. The percentage of leakage was obtained through the following equation:% release = (Fmeasured − Finitial)/(Ffinal − Finitial) × 100, where Ffinal is the average fluorescence value obtained after the addition of Triton, Finitial is the average of the initial values of the run before the addition of the peptide, and Fmeasured are the fluorescence values obtained at each point of the experiment.
Here, we evaluated two systems of membrane mimetics, including vesicles with a composition of 80% POPE and 20% POPG, and another with 95% POPC and 5% POPG. The first is widely used as a model of bacterial membranes, specifically of E. coli membrane. Membranes constituting POPC and POPG were used to mimic mammalian membranes due to the presence of choline-containing lipids in animal membranes.

S. aureus ATCC 25923 = test: MIC/MBC, broth microdilution and subculture on CA-MH agar; format: cell-based, Staphylococcus aureus; conditions: triplicate, mode; for MIC: broth microdilution; for MBC: subculture on CA-MH agar, 37 °C, 24 h
Description: as §1, §2

E. faecium ATCC 700221 = test: as above; format: cell-based, Enterococcus faecium; design: key to Act (antibacterial activity): Bc, bactericidal; Bs, bacteriostatic; conditions: for MIC: broth microdilution; for MIC / MBC: triplicate, mode; for MBC: subculture on CA-MH agar, 37 °C, 24 h
Description: as §1, §2

A. baumannii ATCC 19606 = test: as above; format: cell-based, Acinetobacter baumannii; design: key to Act (antibacterial activity): Bc, bactericidal; Bs, bacteriostatic; conditions: for MIC: broth microdilution; for MIC / MBC: triplicate, mode; for MBC: subculture on CA-MH agar, 37 °C, 24 h
Description: as §1, §2

P. aeruginosa ATCC 27853 = test: as above; format: cell-based, Pseudomonas aeruginosa; design: key to Act (antibacterial activity): Bc, bactericidal; Bs, bacteriostatic; conditions: for MIC: broth microdilution; for MIC / MBC: triplicate, mode; for MBC: subculture on CA-MH agar, 37 °C, 24 h
Description: as §1, §2

SARS-CoV-2 PL^pro [3] = target: T1, SARS-CoV-2 PL^pro (Severe acute respiratory syndrome coronavirus 2, UniProt P0DTD1); conditions: PL^pro from SARS-CoV-2; peptide 10 µM; ref 19 (Freire et al., 2021); cited from earlier work
T1 construct: made in house
Description: Table 3 PL^pro activity by peptide analogs of p-BThTX-I at the concentration of 10 μM and IC50 values. Representative concentration–response inhibition curves against PL^pro from SARS-CoV-2 are presented in the Supplementary Material (Figure S7). | column: Inhibition (%) at 10 µM; IC50 μM

[4] = test system: K. pneumoniae ATCC 700603; test: MIC/MBC, broth microdilution and subculture on CA-MH agar; format: cell-based, Klebsiella pneumoniae; design: key to Act (antibacterial activity): Bc, bactericidal; Bs, bacteriostatic; conditions: for MIC: broth microdilution; for MIC / MBC: triplicate, mode; for MBC: subculture on CA-MH agar, 37 °C, 24 h
Description: as §1, §2

SARS-CoV-2 = conditions: Vero cells; cited from earlier work
Source text: In December 2019, the first case of viral infection with a new coronavirus was reported in China, which was later named severe acute respiratory syndrome coronavirus 2 (SARS-CoV-2), and the disease caused by this was named coronavirus-2019 or COVID-19 by the WHO. This disease has taken on great proportions, causing a pandemic scenario and great global concern. Even with the improvements in disease control, there is still a need for new, specific antiviral therapeutic options. As antimicrobial peptides also have antiviral action, the L-dimer, D-dimer and L-tetramer, in addition to ...

SARS-CoV-2 PL^pro [5] = target: T1, SARS-CoV-2 PL^pro; test: PL^pro enzymatic inhibition assay; format: biochemical; conditions: PL^pro from SARS-CoV-2
[6] = MBC/MIC ratio >4 suggests bacteriostatic

SMILES | MIC (E. faecalis ATCC 29212) | MBC (E. faecalis ATCC 29212) | MIC [1] | MBC [1] | MIC (E. coli ATCC 25922) | MBC (E. coli ATCC 25922) | MIC (S. aureus ATCC 25923) | MBC (S. aureus ATCC 25923) | MIC (E. faecium ATCC 700221) | MBC (E. faecium ATCC 700221) | MIC (A. baumannii ATCC 19606) | MBC (A. baumannii ATCC 19606) | MIC (P. aeruginosa ATCC 27853) | MBC (P. aeruginosa ATCC 27853) | MIC [4] | MBC [4] | also measured
CC(C)C[C@@H](NC(=O)[C@@H](Cc1c[nH]cn1)NC(=O)[C@@H](Cc1ccc(O)cc1)NC(=O)[C@@H](CCCNC(=N)N)NC(=O)[C@@H](Cc1ccc(O)cc1)NC(=O)[C@@H](CCCCN)NC(=O)[C@H](N)CCCCN)C(=O)N[C@H](CCCCN)C(=O)N1CCC[C@@H]1C(=O)N[C@H](Cc1ccccc1)C(=O)NCCCC[C@H](NC(=O)[C@@H](Cc1ccccc1)NC(=O)[C@H]1CCCN1C(=O)[C@@H](CCCCN)NC(=O)[C@@H](CC(C)C)NC(=O)[C@@H](Cc1c[nH]cn1)NC(=O)[C@@H](Cc1ccc(O)cc1)NC(=O)[C@@H](CCCNC(=N)N)NC(=O)[C@@H](Cc1ccc(O)cc1)NC(=O)[C@@H](CCCCN)NC(=O)[C@H](N)CCCCN)C(N)=O [D-dimer] (I: H-[dK][dK][dY][dR][dY][dH][dL][dK][dP][dF]K-NH2 / II: H-[dK][dK][dY][dR][dY][dH][dL][dK][dP][dF]; amide I:11-II:C; N-terminus assumed) | 178 µM and 512 μg/mL | 512 µg/mL (≈ 178 µM) | 16 µg/mL | 16 µg/mL (≈ 5.58 µM) | 32 μg/mL and 11 µM | 32 µg/mL (≈ 11.2 µM) | 256 μg/mL and 89 µM | >512 µg/mL | 64 μg/mL and 22 µM | >256 µg/mL | 5 µM (≈ 14.3 µg/mL) | 64 µg/mL (≈ 22.3 µM) | 256 μg/mL and 89 µM | 512 µg/mL (≈ 178 µM) | 64 μg/mL and 22 µM | 128 µg/mL (≈ 44.6 µM) | Act (antibacterial activity) (E. faecalis ATCC 29212; [6]): Bc; Act (antibacterial activity) [1, 6]: Bc; Act (antibacterial activity) (E. coli ATCC 25922; [6]): Bc; fluorescein leakage ([2]; concentration not stated in the sentence (10 and 50 µM tested)): 20%; CF leakage ([2]; peptide 50 µM): 20%; Act (antibacterial activity) (E. faecium ATCC 700221; [6]): Bs; Act (antibacterial activity) (A. baumannii ATCC 19606; [6]): Bc; Act (antibacterial activity) (P. aeruginosa ATCC 27853; [6]): Bc; Inhibition (%) at 10 µM (SARS-CoV-2 PL^pro [3]): 96.35 ± 0.91%; Act (antibacterial activity) [4, 6]: Bc; percentage inhibition of SARS-CoV-2 infection (SARS-CoV-2): 69%
CC(C)C[C@@H](NC(=O)[C@@H](Cc1c[nH]cn1)NC(=O)[C@@H](Cc1ccc(O)cc1)NC(=O)[C@@H](CCCNC(=N)N)NC(=O)[C@@H](Cc1ccc(O)cc1)NC(=O)[C@@H](CCCCN)NC(=O)[C@H](N)CCCCN)C(=O)N[C@H](CCCCN)C(=O)N1CCC[C@@H]1C(=O)N[C@H](Cc1ccccc1)C(N)=O [D-monomer] (H-[dK][dK][dY][dR][dY][dH][dL][dK][dP][dF]-NH2) | >371 µM | >512 µg/mL | >371 µM | >512 µg/mL | 185 µM (≈ 255 µg/mL) | 256 µg/mL (≈ 186 µM) | >371 µM | >512 µg/mL | >371 µM | >512 µg/mL | >371 µM | >512 µg/mL | >371 µM | >512 µg/mL | 371 µM (≈ 511 µg/mL) | 512 µg/mL (≈ 371 µM) | inhibition at 10 µM (SARS-CoV-2 PL^pro [5]; peptide 10 µM): 85 ± 3%; IC50 (SARS-CoV-2 PL^pro [5]; two independent experiments): 3 ± 1 µM
